ChEMBL document CHEMBL5715954, “Silencing c-Myc translation as a therapeutic strategy through targeting PI3Kδ and CK1ε in hematological malignancies” (Blood, 2017)

Assays:
Parameters in all cases: scale not given: the % may be the effect or the level left
[1] = target: Serine/threonine-protein kinase N2 (Homo sapiens) (UniProt Q16513); assay: Inhibition of human PKN2 assessed as enzyme activity at 1 uM using KKLNRTLSVA as substrate preincubated for 20 mins followed by [gamma-33P]-ATP addition and measured after 120 mins by radiometric Hot-SpotSM Kinase assay relative to control
Sequence of Serine/threonine-protein kinase N2 (Homo sapiens) (Q16513 whole entry, looked up): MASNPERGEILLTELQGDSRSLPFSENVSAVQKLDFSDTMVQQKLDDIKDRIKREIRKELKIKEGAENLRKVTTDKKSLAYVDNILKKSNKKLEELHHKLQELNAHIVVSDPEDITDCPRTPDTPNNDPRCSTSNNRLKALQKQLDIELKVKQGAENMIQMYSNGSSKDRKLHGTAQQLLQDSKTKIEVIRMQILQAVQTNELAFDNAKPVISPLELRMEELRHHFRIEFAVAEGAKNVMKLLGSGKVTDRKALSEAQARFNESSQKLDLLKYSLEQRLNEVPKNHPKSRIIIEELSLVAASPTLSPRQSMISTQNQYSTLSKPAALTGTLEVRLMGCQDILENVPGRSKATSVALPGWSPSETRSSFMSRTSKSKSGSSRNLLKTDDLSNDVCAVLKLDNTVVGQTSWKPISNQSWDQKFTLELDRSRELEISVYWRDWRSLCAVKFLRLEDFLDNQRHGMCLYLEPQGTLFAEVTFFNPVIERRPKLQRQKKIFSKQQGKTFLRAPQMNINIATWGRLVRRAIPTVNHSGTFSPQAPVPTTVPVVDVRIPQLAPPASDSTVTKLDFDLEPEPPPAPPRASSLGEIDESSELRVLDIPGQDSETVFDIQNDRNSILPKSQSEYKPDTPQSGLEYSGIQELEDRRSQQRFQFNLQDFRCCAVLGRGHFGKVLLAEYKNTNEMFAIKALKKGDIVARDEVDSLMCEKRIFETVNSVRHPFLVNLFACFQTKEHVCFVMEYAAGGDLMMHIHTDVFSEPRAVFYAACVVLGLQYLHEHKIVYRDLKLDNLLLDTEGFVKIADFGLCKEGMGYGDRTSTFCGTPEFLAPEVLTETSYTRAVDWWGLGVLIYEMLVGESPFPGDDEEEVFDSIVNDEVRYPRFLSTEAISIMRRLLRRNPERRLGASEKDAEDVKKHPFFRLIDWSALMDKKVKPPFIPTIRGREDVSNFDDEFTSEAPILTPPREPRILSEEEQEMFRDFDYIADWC

[2] = target: Serine/threonine-protein kinase PAK 5 (Homo sapiens) (UniProt Q9P286); assay: Inhibition of human PAK5 assessed as enzyme activity at 1 uM using RRRLSFAEPG as substrate preincubated for 20 mins followed by [gamma-33P]-ATP addition and measured after 120 mins by radiometric Hot-SpotSM Kinase assay relative to control
[3] = target: T1, Mitogen-activated protein kinase kinase kinase 12 (Homo sapiens) (UniProt Q12852); assay: Inhibition of human DLK/MAP3K12 assessed as enzyme activity at 1 uM using myelin basic protein as substrate preincubated for 20 mins followed by [gamma-33P]-ATP addition and measured after 120 mins by radiometric Hot-SpotSM Kinase assay relative to control
T1 sequence (whole entry): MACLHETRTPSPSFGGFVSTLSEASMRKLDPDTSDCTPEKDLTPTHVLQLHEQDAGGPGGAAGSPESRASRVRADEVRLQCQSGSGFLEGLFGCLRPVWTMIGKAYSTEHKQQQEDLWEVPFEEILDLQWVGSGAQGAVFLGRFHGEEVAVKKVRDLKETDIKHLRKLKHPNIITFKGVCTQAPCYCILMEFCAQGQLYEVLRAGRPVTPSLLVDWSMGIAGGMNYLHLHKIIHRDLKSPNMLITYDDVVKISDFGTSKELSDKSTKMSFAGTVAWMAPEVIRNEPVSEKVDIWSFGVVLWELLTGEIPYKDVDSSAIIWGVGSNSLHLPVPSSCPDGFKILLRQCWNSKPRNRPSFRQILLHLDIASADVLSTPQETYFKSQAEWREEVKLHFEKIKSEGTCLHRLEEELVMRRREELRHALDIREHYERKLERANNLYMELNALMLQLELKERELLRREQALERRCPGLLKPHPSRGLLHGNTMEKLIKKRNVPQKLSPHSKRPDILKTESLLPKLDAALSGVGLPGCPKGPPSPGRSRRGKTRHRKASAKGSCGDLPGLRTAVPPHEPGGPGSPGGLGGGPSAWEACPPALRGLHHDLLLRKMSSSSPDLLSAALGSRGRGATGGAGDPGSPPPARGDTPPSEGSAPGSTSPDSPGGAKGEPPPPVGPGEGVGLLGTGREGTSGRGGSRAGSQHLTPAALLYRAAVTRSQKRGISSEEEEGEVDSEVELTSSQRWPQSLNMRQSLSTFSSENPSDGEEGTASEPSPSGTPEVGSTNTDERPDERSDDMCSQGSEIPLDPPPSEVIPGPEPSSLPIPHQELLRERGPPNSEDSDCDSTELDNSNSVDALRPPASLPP

[4] = target: Fibroblast growth factor receptor 2 (Homo sapiens) (UniProt P21802); assay: Inhibition of human FGFR2 assessed as enzyme activity at 1 uM using poly[Glu:Tyr] (4:1) as substrate preincubated for 20 mins followed by [gamma-33P]-ATP addition and measured after 120 mins by radiometric Hot-SpotSM Kinase assay relative to control
Sequence of Fibroblast growth factor receptor 2 (Homo sapiens) (P21802 22-821 limits assumed): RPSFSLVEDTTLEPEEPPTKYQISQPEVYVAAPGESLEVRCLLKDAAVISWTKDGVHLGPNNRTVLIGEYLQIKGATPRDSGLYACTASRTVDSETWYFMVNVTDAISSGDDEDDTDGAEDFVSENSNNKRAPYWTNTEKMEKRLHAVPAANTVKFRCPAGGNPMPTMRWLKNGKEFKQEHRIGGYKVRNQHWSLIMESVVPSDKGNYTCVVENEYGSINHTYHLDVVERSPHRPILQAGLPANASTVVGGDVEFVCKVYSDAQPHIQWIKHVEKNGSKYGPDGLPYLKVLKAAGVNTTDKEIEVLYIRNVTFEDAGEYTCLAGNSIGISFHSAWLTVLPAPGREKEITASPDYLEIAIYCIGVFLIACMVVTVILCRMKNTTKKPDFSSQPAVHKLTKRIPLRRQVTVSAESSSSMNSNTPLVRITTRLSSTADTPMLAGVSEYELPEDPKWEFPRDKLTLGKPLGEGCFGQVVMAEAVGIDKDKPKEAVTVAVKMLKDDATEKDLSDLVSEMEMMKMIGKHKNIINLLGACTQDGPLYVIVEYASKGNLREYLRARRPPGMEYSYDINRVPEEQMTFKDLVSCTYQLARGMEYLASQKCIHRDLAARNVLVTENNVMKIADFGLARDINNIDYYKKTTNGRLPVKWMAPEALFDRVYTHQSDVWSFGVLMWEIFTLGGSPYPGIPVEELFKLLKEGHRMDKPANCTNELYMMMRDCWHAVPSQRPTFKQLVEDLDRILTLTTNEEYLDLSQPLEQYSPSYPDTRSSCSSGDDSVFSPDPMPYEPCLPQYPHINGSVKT

[5] = target: Tyrosine-protein kinase JAK2 (Homo sapiens) (UniProt O60674); assay: Inhibition of human JAK2 assessed as enzyme activity at 1 uM using poly[Glu:Tyr] (4:1) as substrate preincubated for 20 mins followed by [gamma-33P]-ATP addition and measured after 120 mins by radiometric Hot-SpotSM Kinase assay relative to control
Sequence of Tyrosine-protein kinase JAK2 (Homo sapiens) (O60674 whole entry): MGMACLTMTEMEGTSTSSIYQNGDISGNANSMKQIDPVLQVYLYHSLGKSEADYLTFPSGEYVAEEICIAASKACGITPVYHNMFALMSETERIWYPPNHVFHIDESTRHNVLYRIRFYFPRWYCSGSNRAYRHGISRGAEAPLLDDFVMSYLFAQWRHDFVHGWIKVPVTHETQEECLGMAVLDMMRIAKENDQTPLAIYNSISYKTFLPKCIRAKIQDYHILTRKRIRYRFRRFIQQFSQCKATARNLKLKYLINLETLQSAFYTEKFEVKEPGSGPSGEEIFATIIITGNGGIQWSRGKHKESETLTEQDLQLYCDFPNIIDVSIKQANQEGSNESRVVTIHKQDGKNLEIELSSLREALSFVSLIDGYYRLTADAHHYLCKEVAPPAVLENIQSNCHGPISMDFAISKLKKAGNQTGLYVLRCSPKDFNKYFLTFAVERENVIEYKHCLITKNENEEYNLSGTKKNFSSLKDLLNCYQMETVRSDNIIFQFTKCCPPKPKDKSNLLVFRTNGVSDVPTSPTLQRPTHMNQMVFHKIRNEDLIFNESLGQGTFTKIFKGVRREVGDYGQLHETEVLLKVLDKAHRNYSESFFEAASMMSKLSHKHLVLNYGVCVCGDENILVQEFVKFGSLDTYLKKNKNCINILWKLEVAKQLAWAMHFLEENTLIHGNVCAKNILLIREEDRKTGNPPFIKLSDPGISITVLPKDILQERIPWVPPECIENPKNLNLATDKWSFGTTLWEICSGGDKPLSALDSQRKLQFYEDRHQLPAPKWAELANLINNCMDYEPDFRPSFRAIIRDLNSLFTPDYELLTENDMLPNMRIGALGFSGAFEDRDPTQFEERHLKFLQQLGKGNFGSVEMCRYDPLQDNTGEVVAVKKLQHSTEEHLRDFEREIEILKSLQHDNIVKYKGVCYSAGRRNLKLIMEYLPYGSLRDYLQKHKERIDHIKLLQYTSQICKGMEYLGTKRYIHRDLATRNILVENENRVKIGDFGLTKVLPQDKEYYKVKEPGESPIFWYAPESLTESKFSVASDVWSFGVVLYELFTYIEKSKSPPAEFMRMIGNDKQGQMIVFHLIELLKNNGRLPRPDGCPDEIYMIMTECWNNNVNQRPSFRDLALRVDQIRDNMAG

[6] = target: Insulin-like growth factor 1 receptor (Homo sapiens) (UniProt P08069); assay: Inhibition of human IGF1R assessed as enzyme activity at 1 uM using KKKSPGEYVNIEFG as substrate preincubated for 20 mins followed by [gamma-33P]-ATP addition and measured after 120 mins by radiometric Hot-SpotSM Kinase assay relative to control
[7] = target: Tyrosine-protein kinase Lyn (Homo sapiens) (UniProt P07948); assay: Inhibition of human LYN B assessed as enzyme activity at 1 uM using poly[Glu:Tyr] (4:1) as substrate preincubated for 20 mins followed by [gamma-33P]-ATP addition and measured after 120 mins by radiometric Hot-SpotSM Kinase assay relative to control
Sequence of Tyrosine-protein kinase Lyn (Homo sapiens) (P07948 2-512 limits assumed): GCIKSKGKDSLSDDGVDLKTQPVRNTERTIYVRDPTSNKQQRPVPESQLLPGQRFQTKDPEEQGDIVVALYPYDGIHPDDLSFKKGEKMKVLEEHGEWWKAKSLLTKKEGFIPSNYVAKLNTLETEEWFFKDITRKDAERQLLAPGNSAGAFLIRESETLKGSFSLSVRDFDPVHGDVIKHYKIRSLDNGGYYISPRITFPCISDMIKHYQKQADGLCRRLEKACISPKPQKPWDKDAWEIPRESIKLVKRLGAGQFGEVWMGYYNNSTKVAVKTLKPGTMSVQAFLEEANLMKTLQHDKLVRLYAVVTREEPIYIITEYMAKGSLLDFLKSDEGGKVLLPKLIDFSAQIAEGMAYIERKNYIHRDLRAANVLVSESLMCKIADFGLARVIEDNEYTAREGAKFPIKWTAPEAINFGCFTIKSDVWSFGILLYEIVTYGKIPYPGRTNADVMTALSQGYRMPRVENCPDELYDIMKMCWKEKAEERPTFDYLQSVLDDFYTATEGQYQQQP

[8] = target: NT-3 growth factor receptor (Homo sapiens) (UniProt Q16288); assay: Inhibition of human TRKC assessed as enzyme activity at 1 uM using poly[Glu:Tyr] (4:1) as substrate preincubated for 20 mins followed by [gamma-33P]-ATP addition and measured after 120 mins by radiometric Hot-SpotSM Kinase assay relative to control
[9] = target: T2, Homeodomain-interacting protein kinase 4 (Homo sapiens) (UniProt Q8NE63); assay: Inhibition of human HIPK4 assessed as enzyme activity at 1 uM using myelin basic protein as substrate preincubated for 20 mins followed by [gamma-33P]-ATP addition and measured after 120 mins by radiometric Hot-SpotSM Kinase assay relative to control
T2 sequence (whole entry): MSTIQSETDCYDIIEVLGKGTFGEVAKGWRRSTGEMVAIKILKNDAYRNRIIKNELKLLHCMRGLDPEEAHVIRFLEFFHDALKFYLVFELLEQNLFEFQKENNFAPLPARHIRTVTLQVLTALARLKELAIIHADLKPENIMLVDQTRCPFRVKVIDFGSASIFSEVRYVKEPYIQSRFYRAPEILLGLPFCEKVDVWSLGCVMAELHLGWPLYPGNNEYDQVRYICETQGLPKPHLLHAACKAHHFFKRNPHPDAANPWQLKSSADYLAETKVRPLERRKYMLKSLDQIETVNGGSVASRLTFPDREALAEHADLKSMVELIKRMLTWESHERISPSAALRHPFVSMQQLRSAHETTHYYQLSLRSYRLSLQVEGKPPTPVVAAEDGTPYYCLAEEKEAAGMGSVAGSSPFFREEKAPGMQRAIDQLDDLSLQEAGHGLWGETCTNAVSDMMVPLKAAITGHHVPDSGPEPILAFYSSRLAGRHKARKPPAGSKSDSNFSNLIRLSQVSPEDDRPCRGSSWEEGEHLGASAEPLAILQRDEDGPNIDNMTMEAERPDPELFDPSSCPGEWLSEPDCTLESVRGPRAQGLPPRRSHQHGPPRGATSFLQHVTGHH

[10] = target: Protein kinase C delta type (Homo sapiens) (UniProt Q05655); assay: Inhibition of human PKCd assessed as enzyme activity at 1 uM using ERMRPRKRQGSVRRRV as substrate preincubated for 20 mins followed by [gamma-33P]-ATP addition and measured after 120 mins by radiometric Hot-SpotSM Kinase assay relative to control
Sequence of Protein kinase C delta type (Homo sapiens) (Q05655 whole entry, looked up, canonical isoform): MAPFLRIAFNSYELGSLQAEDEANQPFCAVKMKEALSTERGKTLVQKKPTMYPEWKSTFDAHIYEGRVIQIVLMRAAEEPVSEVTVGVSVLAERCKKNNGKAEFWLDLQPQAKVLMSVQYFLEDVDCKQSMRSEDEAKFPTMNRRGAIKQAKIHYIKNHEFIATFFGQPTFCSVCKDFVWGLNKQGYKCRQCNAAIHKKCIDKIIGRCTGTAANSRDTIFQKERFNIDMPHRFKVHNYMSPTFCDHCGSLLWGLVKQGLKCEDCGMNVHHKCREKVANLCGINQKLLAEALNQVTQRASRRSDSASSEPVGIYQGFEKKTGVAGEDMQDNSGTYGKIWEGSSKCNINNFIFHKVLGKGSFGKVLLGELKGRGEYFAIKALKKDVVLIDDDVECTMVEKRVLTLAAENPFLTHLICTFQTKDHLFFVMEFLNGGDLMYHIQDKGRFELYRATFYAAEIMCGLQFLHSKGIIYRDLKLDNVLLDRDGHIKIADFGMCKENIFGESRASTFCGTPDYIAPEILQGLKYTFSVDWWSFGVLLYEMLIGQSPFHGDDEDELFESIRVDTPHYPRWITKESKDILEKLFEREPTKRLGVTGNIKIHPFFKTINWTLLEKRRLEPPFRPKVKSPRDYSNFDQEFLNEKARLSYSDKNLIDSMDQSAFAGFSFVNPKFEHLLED

[11] = target: Phosphorylase b kinase gamma catalytic chain, skeletal muscle/heart isoform (Homo sapiens) (UniProt Q16816); assay: Inhibition of human PHKg1 assessed as enzyme activity at 1 uM using KKLNRTLSFAEPG as substrate preincubated for 20 mins followed by [gamma-33P]-ATP addition and measured after 120 mins by radiometric Hot-SpotSM Kinase assay relative to control
Sequence of Phosphorylase b kinase gamma catalytic chain, skeletal muscle/heart isoform (Homo sapiens) (Q16816 whole entry, looked up, canonical isoform): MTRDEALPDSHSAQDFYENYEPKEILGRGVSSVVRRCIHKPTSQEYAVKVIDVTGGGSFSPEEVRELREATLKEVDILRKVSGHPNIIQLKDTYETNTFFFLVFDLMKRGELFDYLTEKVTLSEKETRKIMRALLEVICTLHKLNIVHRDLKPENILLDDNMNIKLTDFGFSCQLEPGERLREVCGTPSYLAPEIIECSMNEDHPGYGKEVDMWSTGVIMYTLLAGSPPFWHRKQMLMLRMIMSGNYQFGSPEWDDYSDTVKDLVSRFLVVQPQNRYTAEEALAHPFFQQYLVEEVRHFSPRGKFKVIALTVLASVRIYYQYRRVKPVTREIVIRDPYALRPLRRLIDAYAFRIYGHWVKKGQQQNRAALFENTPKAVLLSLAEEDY

Row | SMILES | Activity [1] | Activity [2] | Activity [3] | Activity [4] | Activity [5] | Activity [6] | Activity [7] | Activity [8] | Activity [9] | Activity [10] | Activity [11]
1 | CC[C@H](Nc1ncnc2[nH]cnc12)c1nc2cccc(F)c2c(=O)n1-c1ccccc1 | 84.7% | 101% | 110% | 95.8% | 95.7% | 91.5% | 97.8% | 89.6% | 92.9% | 95.2% | 99%
2 | C[C@H](Nc1ncnc2nc[nH]c12)c1cc2cccc(Cl)c2c(=O)n1-c1ccccc1 | 84.5% | 101% | 107% | 93.9% | 100% | 102% | 102% | 91% | 98.9% | 93.9% | 98.4%
3 | CC(C)Oc1ccc(-c2nn([C@@H](C)c3oc4ccc(F)cc4c(=O)c3-c3cccc(F)c3)c3ncnc(N)c23)cc1F [UMBRALISIB] | 84.4% | 96.4% | 127% | 97.8% | 92% | 96.5% | 104% | 88.7% | 113% | 104% | 95.4%
